From patent US20240124409A1, “GUAIANOLIDE SESQUITERPENE LACTONE DERIVATIVES AND PHARMACEUTICAL USE THEREOF” (NANJING UNIVERSITY OF CHINESE MEDICINE, priority 2021, published 2024)

Columns and labels:
Type in all cases: in vivo, C57BL/6 mice
[1] = tested on: DSS-induced UC model mice; test: Anti-ulcerative colitis activity, DSS mouse colitis model; parameters: key to DAI score: DAI = (weight loss + stool + occult blood scores)/3; details: for MPO activity in colon tissue / Colon length: 10 days
Description: Except for the normal group, the other mice were free to drink 2.5% DSS for 7 days, which was then replaced to distilled water to be drunk freely for 3 days to establish the UC model. […] The mice in the normal group and model groups were administered intragastrically the same volume of the solvent 0.5% CMC-Na.
The general living conditions of the mice in each group were observed and the disease activity indexs (DAI) were evaluated. The daily specific observation indicator was weight, stool property and occult blood state of mice, and then the scores of the weight loss, stool property and occult blood state were added to determine the average value, so as to obtain the DAI score of each mouse, that is, DAI=(weight loss score+stool property score+occult blood state score)/3, to evaluate the disease activity.
Test method of occult blood: Using o-toluidine method, a little feces was picked up into a 24-well culture plate with a cotton swab, into which was first added 200 μL of the solution of o-toluidine glacial acetic acid, and then quickly added 200 μL of 3% hydrogen peroxide solution. Those turned blue-brown within 2 minutes were positive.
1 h after the last administration, blood was collected from the venous plexus of fundus oculi, stood at room temperature for 2 h, and centrifuged at 3000 rpm for 20 min. The serum was aspirated, aliquoted, and frozen at −70° C. for subsequent use. After the blood collection, the mice were sacrificed by cervical dislocation, and the abdominal cavity was opened. The colon tissues were removed 1 cm away from the anus, rinsed twice with pre-cooled PBS, and frozen at −70° C. for subsequent use.
The shortening of colon length is one of the main characteristics of DSS-induced UC model mice. After dissecting the abdominal cavity of the UC mice, the colon and distal ileum tissues were dissociated. The external morphological changes of the colon tissues were observed, the colon length was measured and recorded, and the photos were taken.
40 mg of colon tissues of the mice in each group was taken, into which was added 400 μL of pre-cooled normal saline to prepare tissue homogenates. After centrifugation at 4° C. and 1200 rpm for 5 min, the supernatants were collected. According to the method described in the kit instructions, various reagents were added sequentially, and finally the absorbance value of each well was determined at the wavelength of 460 nm of the microplate reader to calculate the MPO activity.
MPO activity (U/g wet weight)=(OD value of test tube−OD value of control tube)/11.3×sampling amount(g)

[2] = tested on: chronic kidney injury models by the unilateral ureteral obstruction method; test: Mouse chronic kidney injury model (unilateral ureteral obstruction); details: for BUN (urea level in serum) / Scr (creatinine level in serum): 14 days; for BUN (urea level in serum): in mmol/L (unit assumed); for Scr (creatinine level in serum): in µmol/L (unit assumed); for Col1a1 mRNA expression / Havcr1 mRNA expression / Il1 mRNA expression / Il6 mRNA expression / Ngal mRNA expression / Tgfb1 mRNA expression / Tnf mRNA expression / α-Sma mRNA expression: kidney
Text: Chronic kidney injury: The mice were randomly divided into 7 groups, one of which was randomly selected as the normal group, and the other 6 groups were the model group, the parent drug 1 (0.4 and 4 μmol/kg), the hydrochloride 22 (4 μmol/kg), and the fumarate 23 (0.4 and 4 μmol/kg) groups, respectively, with 6 mice in each group. In addition to mice in the normal group that had sham operations (i.e., there was no other operations, but only the left ureter was exposed), the other mice were established chronic kidney injury models by the unilateral ureteral obstruction method. Specifically, the abdominal skin was sterilized with iodophor and alcohol in sequence, and the abdominal skin was cut and separated layer by layer. After fully exposing and separating the left ureter, double obstruction was performed at the proximal bladder end of the ureter with a digestible suture line, followed by suture. On the first day of model establishment, the parent drug 1 (0.4 and 4 μmol/kg), the hydrochloride 22 (4 μmol/kg) and the fumarate 23 (0.4 and 4 μmol/kg) were administered intragastrically for 14 consecutive days. The mice in the normal group and model group were administered intragastrically the same volume of the solvent 0.5% CMC-Na.
1 h after the last administration, blood was collected from the venous plexus of fundus oculi, stood at room temperature for 2 h, and centrifuged at 3000 rpm for 20 min. The serum was aspirated, aliquoted, and frozen at −70° C. for subsequent use. After blood collection, the mice were sacrificed by cervical dislocation, and the abdominal cavity was opened. The kidneys were taken out, rinsed twice with pre-cooled PBS after the perirenal fats and capsules were peeled off, and then fixed with 4% paraformaldehyde for 24-48 h, embedded in paraffin and stained with HE. The remaining tissues were frozen at −70° C. for subsequent use.
μL serum was taken from each sample for the detection of creatinine and urea levels. Samples were added in accordance with the instructions of the kit strictly. After incubation at 37° C., the absorbance value was measured in a microplate reader, and the content levels of detection indicators in each group were calculated according to the standard curve.
The extraction of total RNA from animal tissues, cDNA synthesis and PCR amplification are as in above examples.

[3] = tested on: mouse acute lung injury model; test: Mouse acute lung injury model (LPS), ELISA; details: title: serum (text b290: lung tissues)
Description: In addition to the normal group injected intragastrically with PBS, other mice were injected intraperitoneally with LPS (7.5 mg/kg) to establish acute lung injury models. Three days before model establishment, the parent drug 1 (0.4 and 4 μmol/kg), the hydrochloride 22 (0.4 and 4 μmol/kg), the fumarate 23 (0.4 and 4 μmol/kg) and the positive drug Dex (12 μmol/kg) were administered intragastrically in advance, and LPS (7.5 mg/kg) was injected intraperitoneally half an hour after administration on the third day.
abdominal cavity was opened. The lungs were taken out, and rinsed twice with pre-cooled PBS. […] The remaining tissues were frozen at −70° C. for subsequent use.
20 mg of lung tissues were accurately weighed, rinsed with pre-cooled PBS solution, cut into small pieces by ophthalmic surgical scissors, and put into a glass homogenizer, into which was added 180 μL PBS (containing 1 mM PMSF). The mixture was homogenized at 60 HZ for 180 s, and centrifuged at 3000 rpm/min at 4° C. for 20 min. 1 μL supernatant was taken, the protein concentration of which was measured with Nanodrop and leveled, and could be used for subsequent experiments.

C=C1C(=O)O[C@@H]2[C@H]3C(C)=CC[C@@]34O[C@@]4(C)CC[C@@H]12 [arglabin, reference compound]
MPO activity in colon tissue ([1]; 20 nmol/kg i.g.): 0.95 ± 0.18 U/g tissue
Colon length ([1]; 20 nmol/kg/d i.g.): 6.50 ± 0.15 cm
DAI score ([1]; day 1, 20 nmol/kg i.g.): 0.00 ± 0.00
DAI score ([1]; day 2, 20 nmol/kg i.g.): 0.36 ± 0.20
DAI score ([1]; day 3, 20 nmol/kg i.g.): 0.65 ± 0.20
DAI score ([1]; day 4, 20 nmol/kg i.g.): 1.17 ± 0.19
DAI score ([1]; day 5, 20 nmol/kg i.g.): 1.39 ± 0.13
DAI score ([1]; day 6, 20 nmol/kg i.g.): 1.62 ± 0.10
DAI score ([1]; day 7, 20 nmol/kg i.g.): 2.07 ± 0.17
DAI score ([1]; day 8, 20 nmol/kg i.g.): 2.32 ± 0.10
DAI score ([1]; day 9, 20 nmol/kg i.g.): 1.45 ± 0.13
DAI score ([1]; day 10, 20 nmol/kg i.g.): 0.92 ± 0.06

C=C1C(=O)O[C@@H]2[C@@H]3[C@]4(CC[C@@]3(C)O)C[C@]4(C)CC[C@@H]12 [Compound 1]
MPO activity in colon tissue ([1]; 20 nmol/kg i.g.): 1.40 ± 0.31 U/g tissue
Colon length ([1]; 20 nmol/kg/d i.g.): 6.15 ± 0.35 cm
MPO activity in colon tissue ([1]; 40 nmol/kg i.g.): 1.08 ± 0.12 U/g tissue
Colon length ([1]; 40 nmol/kg/d i.g.): 6.78 ± 0.28 cm
DAI score ([1]; day 1, 20 nmol/kg i.g.): 0.00 ± 0.00
DAI score ([1]; day 1, 40 nmol/kg i.g.): 0.00 ± 0.00
DAI score ([1]; day 2, 20 nmol/kg i.g.): 0.33 ± 0.14
DAI score ([1]; day 2, 40 nmol/kg i.g.): 0.33 ± 0.19
DAI score ([1]; day 3, 20 nmol/kg i.g.): 0.75 ± 0.28
DAI score ([1]; day 3, 40 nmol/kg i.g.): 0.58 ± 0.21
DAI score ([1]; day 4, 20 nmol/kg i.g.): 1.08 ± 0.37
DAI score ([1]; day 4, 40 nmol/kg i.g.): 1.00 ± 0.19
DAI score ([1]; day 5, 20 nmol/kg i.g.): 1.75 ± 0.50
DAI score ([1]; day 5, 40 nmol/kg i.g.): 1.25 ± 0.34
DAI score ([1]; day 6, 20 nmol/kg i.g.): 2.25 ± 0.44
DAI score ([1]; day 6, 40 nmol/kg i.g.): 1.67 ± 0.36
DAI score ([1]; day 7, 20 nmol/kg i.g.): 2.50 ± 0.17
DAI score ([1]; day 7, 40 nmol/kg i.g.): 1.83 ± 0.44
DAI score ([1]; day 8, 20 nmol/kg i.g.): 2.75 ± 0.39
DAI score ([1]; day 8, 40 nmol/kg i.g.): 1.92 ± 0.50
DAI score ([1]; day 9, 20 nmol/kg i.g.): 1.83 ± 0.17
DAI score ([1]; day 9, 40 nmol/kg i.g.): 1.17 ± 0.32
DAI score ([1]; day 10, 20 nmol/kg i.g.): 1.25 ± 0.16
DAI score ([1]; day 10, 40 nmol/kg i.g.): 0.50 ± 0.22
BUN (urea level in serum) ([2]; 0.4 μmol/kg i.g.): 18.41
Scr (creatinine level in serum) ([2]; 0.4 μmol/kg i.g.): 176.35
BUN (urea level in serum) ([2]; 4 μmol/kg i.g.): 11.01
Scr (creatinine level in serum) ([2]; 4 μmol/kg i.g.): 104.65
Col1a1 mRNA expression ([2]; 0.4 μmol/kg): 16.09
Havcr1 mRNA expression ([2]; 0.4 μmol/kg): 12.56
Il1 mRNA expression ([2]; 0.4 μmol/kg): 6.05
Il6 mRNA expression ([2]; 0.4 μmol/kg): 16.52
Ngal mRNA expression ([2]; 0.4 μmol/kg): 37.82
Tgfb1 mRNA expression ([2]; 0.4 μmol/kg): 2.04
Tnf mRNA expression ([2]; 0.4 μmol/kg): 6.41
α-Sma mRNA expression ([2]; 0.4 μmol/kg): 2.32
Col1a1 mRNA expression ([2]; 4 μmol/kg): 9.45
Havcr1 mRNA expression ([2]; 4 μmol/kg): 8.54
Il1 mRNA expression ([2]; 4 μmol/kg): 3.99
Il6 mRNA expression ([2]; 4 μmol/kg): 6.50
Ngal mRNA expression ([2]; 4 μmol/kg): 21.66
Tgfb1 mRNA expression ([2]; 4 μmol/kg): 1.55
Tnf mRNA expression ([2]; 4 μmol/kg): 6.59
α-Sma mRNA expression ([2]; 4 μmol/kg): 1.54
IL-1β ([3]; 0.4 μmol/kg): 1824.88 ± 32.73 pg/mL
IL-6 ([3]; 0.4 μmol/kg): 2760.57 ± 288.02 pg/mL
IL-1β ([3]; 4 μmol/kg): 945.66 ± 36.71 pg/mL
IL-6 ([3]; 4 μmol/kg): 1314.91 ± 231.08 pg/mL
